Assay results: patent publication US10624948B2, “Use of cell-permeable peptide inhibitors of the JNK signal transduction pathway for the treatment of various diseases” (Xigen Inflammation Ltd., priority 2013, dated 2020)

Key:
[1] = Phase I pharmacokinetics, single intravenous infusion; conditions: human, in vivo
Protocol: The primary objective of the study was to assess the safety and tolerability of XG-102 following intravenous (iv) infusion of single escalating doses of XG-102 to healthy male volunteers. The secondary objective of the study was to assess the pharmacokinetics of XG-102 following iv infusion of single escalating doses of XG-102 to healthy male volunteers. Doses were administered as a 60 minute iv infusion. For control purposes, placebo iv infusion was administered to control subjects. This was a single-centre, randomized, double blind, placebo controlled, ascending single dose, sequential group study. […] Screening was performed in the 3-week period prior to dosing. Dosing occurred on Day 0 for each subject. […] Data for all subjects were included in the safety analyses; data for all subjects who received XG-102 were included in the pharmacokinetic analyses.

[2] = Phase II trial, safety and tolerability (adverse events)
Protocol: The criteria for evaluation of safety were:
An AE is therefore any unfavorable and unintended sign, symptom or disease temporally associated with the use of a medicinal product, whether or not considered related to the medicinal product.
Patients were analyzed as treated, i.e. according to the treatment which they received. The safety set was the primary analysis set for the safety analysis.
The present study was a double-blind study. All patients who were randomized and for whom the sub-conjunctival injection was started are included in the safety analysis by dose group. […] If the study treatment eye drops were stopped prematurely (i.e. before day 21), the patients concerned continued follow-up until day 28, in accordance with the study protocol.
Investigators assessed (in a blinded manner) the relationship of each reported AE to any of the study treatments. An event was considered to be related to study treatment if the Investigator ticked either ‘possible’ or ‘probable’ as the reply to this question.

[3] = test system: Brown Norway rats, STZ-induced diabetic retinopathy; assay: Diabetic retinopathy prevention study in STZ treated rat (IVT); format: in vivo
Protocol: The objective of this study was to determine the ability of XG-102 to prevent diabetic retinopathy when administered by intravitreal injections to streptozotocin (STZ)-treated (hyperglycemic) rats.
All animals from Groups 2, 3, 4 received a 55 mg/kg intravenous (IV) dose of STZ on Day −7.
Test items or reference item were administered by intravitreal injection to the left and right eyes of each animal on Days 1, 8 and 15 as indicated in the Experimental Design table. The animals were anesthetized (isoflurane) for the dose administration, which was performed by a board-certified veterinary ophthalmologist. Topical antibiotics (gentamicin ophthalmic solution) were applied to both eyes twice on the day before treatment, following the injection and at least once on the day following the injection. Prior to dosing, mydriatic drops (1% tropicamide and/or 2.5% phenylephrine) were applied to each eye (further applications were performed when considered appropriate by the veterinary ophthalmologist). During dosing, animals were maintained under anesthesia with isoflurane/oxygen gas. The conjunctivae were flushed with 0.9% Sodium Chloride for Injection USP. A 10 μl Hamilton syringe with 32-gauge, ½-inch needle was used for each intravitreal injection (one syringe/group/treatment). The dose volume was 5 μL/eye. Both eyes were examined by slit-lamp biomicroscopy and/or indirect ophthalmoscopy immediately following each treatment to document any abnormalities (especially to the lens, vitreous and retina) caused by the administration procedure. […]
The in-life procedures, observations, and measurements listed below were performed for study animals. […] Food consumption was quantitatively measured weekly starting during the last week of the pretreatment period. […] Intraocular pressure was measured following each ophthalmology examination, once prestudy and on Day 22, using a TonoVet™ rebound tonometer. The pre-treatment tonometry readings were performed at the same times as anticipated for the final measurements to reduce diurnal variability. […]

db/db mice = conditions: mouse, in vivo, sc, 10 mg/kg
Excerpt: i) Animals • A total of twenty (20) male db/db mice (8 weeks old) were obtained from Charles River (Germany). Upon arrival, animals were group housed (n=6-7/group) and offered regular rodent chow (Altromin standard #1324 chow; C. Petersen, Ringsted, Denmark) and water ad libitum unless otherwise stated. The mice were housed under a 12:12 L/D cycle (lights on at 4:00 and lights off at 16:00) and in temperature and humidity controlled rooms.
ii) Groups and Randomization • On day −4, mice were randomized according to blood glucose level (fasted; blood glucose measured on Biosen S line analyzer (EKF diagnostic, Germany) to participate in one of the following drug treatment groups (n=6): • 1) Vehicle control, S.C. (physiological saline) • 2) XG-102 (SEQ ID NO: 11); 1 mg/kg; s.c. • 3) XG-102 (SEQ ID NO: 11); 10 mg/kg; s.c • All doses listed were calculated for the free-base. […] All compounds were administered sub-cutaneously (s.c.) in a volume of 3 ml/kg. The formulation instructions for vehicle control and XG-102 (SEQ ID NO: 11) were as follows: • First, XG-102 (SEQ ID NO: 11) was dissolved in the vehicle. […]
i) Blood Glucose • Blood glucose was measured from 7 hour fasted animals 6 hours post dosing by collection of 10 μl blood samples from the tail-vein in hematocrite tubes and subsequent analysis on a Biosen s-line analyzer (EKE-diagnostic; Germany).

[4] = test system: Primary cultured macrophages; format: cell-based
Protocol: FIG. 24 Primary cultured macrophages were incubated with XG-102 (SEQ ID NO: 11) and extensively washed.

**Q.** Which AUCextrap ([1]; 10 ug/kg) does the source give for `CC(C)C[C@@H](NC(=O)[C@@H](Cc1ccccc1)NC(=O)[C@H]1CCCN1C(=O)[C@@H](CCC(N)=O)NC(=O)[C@H](NC(=O)[C@H]1CCCN1C(=O)[C@@H](CCCNC(=N)N)NC(=O)[C@@H](CO)NC(=O)[C@@H](CCC(N)=O)NC(=O)[C@H](N)CC(=O)O)C(C)C)C(=O)N[C@H](CC(N)=O)C(=O)N[C@H](CC(C)C)C(=O)N[C@@H](C(=O)N[C@@H](C(=O)N1CCC[C@@H]1C(=O)N[C@H](CCCNC(=N)N)C(=O)N[C@H](CCCCN)C(=O)N1CCC[C@@H]1C(=O)N[C@H](CCCNC(=N)N)C(=O)N1CCC[C@@H]1C(=O)N1CCC[C@@H]1C(=O)N[C@H](CCCNC(=N)N)C(=O)N[C@H](CCCNC(=N)N)C(=O)N[C@H](CCCNC(=N)N)C(=O)N[C@H](CCC(N)=O)C(=O)N[C@H](CCCNC(=N)N)C(=O)N[C@H](CCCNC(=N)N)C(=O)N[C@H](CCCCN)C(=O)N[C@H](CCCCN)C(=O)N[C@H](CCCNC(=N)N)C(=O)NCC(=O)O)[C@H](C)O)[C@H](C)O` [XG-102] here?
**A.** 34.1%

**Q.** What about the AUCextrap ([1]; 40 ug/kg) of the same compound?
**A.** 6.7%

**Q.** And the AUCextrap ([1]; 80 ug/kg)?
**A.** 2.9%

**Q.** And the “patients with Intraocular pressure increased” value ([2]; XG-102 90 μg)?
**A.** 23%

**Q.** And the “percentage of patients who experienced an AE within 24 hours” value ([2]; XG-102 90 μg)?
**A.** 34%

**Q.** What about the overall tolerability ([2]; XG-102 90 μg and 900 μg) of the same compound?
**A.** well tolerated in patients who underwent complex ocular surgery

**Q.** What about the “Adverse events which led to an interruption of study treatment” value ([2]; XG-102 90 μg dose group) of the same compound?
**A.** 11 (14.1%) number of events (%)

**Q.** What about the “patients with Intraocular pressure increased” value ([2]; XG-102 900 μg) of the same compound?
**A.** 10%

**Q.** And the “percentage of patients who experienced an AE within 24 hours” value ([2]; XG-102 900 μg)?
**A.** 27%

**Q.** What about the “Adverse events which led to an interruption of study treatment” value ([2]; XG-102 900 μg dose group) of the same compound?
**A.** 8 (11.6%) number of events (%)

**Q.** And the mortality ([3]; IVT Days 1, 8, 15)?
**A.** no XG-102-related deaths

**Q.** What about the “ERG wave amplitude, overall” value ([3]; rat, in vivo) of the same compound?
**A.** tendency for XG-102 to reverse the decrease of the wave amplitude

**Q.** What about the ERG latencies ([3]; ≤2 μg/eye) of the same compound?
**A.** comparable and remained within the control and/or pretreatment variation

**Q.** And the “reaction at s.c. injection site” value (db/db mice)?
**A.** nodular fibrosis was observed in the subcutaneous tissue

**Q.** And the “incorporation into primary macrophages” value [4]?
**A.** strongly incorporated into primary macrophages
